Measured values published in the NIST ThermoML archive (doi:10.1016/j.tca.2014.05.014).
Numbers after ± are expanded uncertainties.

Assays:
[1] = mn = molality of the nth substance listed, in mol/kg; settings: 101 kPa, Liquid; for speed of sound: Frequency=3 MHz, Sing-around technique in a fixed-path interferometer; for mass density: Vibrating tube method
[2] = 101 kPa, Liquid, Vibrating tube method

OC[C@H]1O[C@@](CO)(O[C@H]2O[C@H](CO)[C@@H](O)[C@H](O)[C@H]2O)[C@@H](O)[C@@H]1O [D-sucrose] + O
[1]
Settings	mass density, 288.15 K [kg/m3]	mass density, 293.15 K [kg/m3]	mass density, 298.15 K [kg/m3]	mass density, 303.15 K [kg/m3]	mass density, 308.15 K [kg/m3]	speed of sound, 288.15 K [m/s]	speed of sound, 293.15 K [m/s]	speed of sound, 298.15 K [m/s]	speed of sound, 303.15 K [m/s]	speed of sound, 308.15 K [m/s]
m1 = 0.05	1006.43 ± 0.17	1005.42 ± 0.17	1004.16 ± 0.17	1002.72 ± 0.17	1001.27 ± 0.17	1471.5 ± 1.2	1487.4 ± 1.2	1501.4 ± 1.2	1513.5 ± 1.2	1523.7 ± 1.2
m1 = 0.15	1019 ± 0.18	1017.99 ± 0.18	1016.73 ± 0.18	1015.24 ± 0.18	1013.54 ± 0.17	1481 ± 1.2	1496.3 ± 1.2	1509.9 ± 1.2	1521.7 ± 1.2	1531.8 ± 1.2
m1 = 0.25	1030.99 ± 0.19	1029.9 ± 0.19	1028.58 ± 0.19	1026.97 ± 0.18	1025.28 ± 0.18	1490.7 ± 1.2	1505.7 ± 1.2	1518.9 ± 1.2	1530.3 ± 1.2	1539.9 ± 1.2
m1 = 0.35	1042.86 ± 0.2	1041.71 ± 0.2	1040.32 ± 0.2	1038.71 ± 0.19	1036.92 ± 0.19	1500.5 ± 1.2	1515 ± 1.2	1527.7 ± 1.2	1538.7 ± 1.2	1548.2 ± 1.2

O [water]
[2]
Settings	mass density [kg/m3]
288.15 K	999.591 ± 0.16
293.15 K	998.551 ± 0.17
298.15 K	997.255 ± 0.17
303.15 K	995.775 ± 0.17
308.15 K	994.329 ± 0.17
